# Laboratory results reported in US12121545B2, “Composition for a fecal-derived sterilized postbiotic in anti-aging and neurotherapeutic applications” (priority 2022, dated 2024).
# Columns and labels:
# Caenorhabditis elegans = test: Oxidative stress tolerance after paraquat exposure; type: in vivo; settings: 10 mM, positive control; over 24 hours post-exposure; negative control (DMSO) declined 41%
# Description: Still referring to FIG. 1, composition 100 may be configured to improve oxidative stress tolerance, preserve mitochondrial function, support energy production, enhance cellular defense mechanisms against oxidative stress, stimulate endogenous antioxidants and enzymes, reduce oxidative stress and/or mitochondrial oxidative stress, improve mitochondrial function, improve healthspan, improve longevity, improve autophagy, increase autophagy, or the like. Oxidative stress and healthspan disclosed herein are further described below. For the purposes of this disclosure, “oxidative stress” is a physiological state characterized by an imbalance between the production of reactive oxygen species and the body's antioxidant defenses. In a non-limiting example, reactive oxygen species (ROS) can be generated endogenously as byproducts of cellular metabolism; for instance in the mitochondria. In another non-limiting example, ROS can be generated exogenously in the result of environmental pollutants, radiation, cigarette smoking, alcohol, certain foods, and drugs. In a healthy human, the body's antioxidant defenses can neutralize these molecules before they cause significant cellular damage. However, when their production overwhelms the body's capacity to neutralize and eliminate them, they can cause widespread cellular damage. […]
# C. elegans adult animals = test: Lifespan of C. elegans adult animals (Kaplan-Meier survival); type: in vivo
# Description: In a embodiments, organisms may include a vehicle control 204. In an embodiment, organisms may be treated with at least 0.05 mg/ml 208 of composition 100 and compared to a “vehicle control,” which as used in this disclosure, may include organisms not treated with composition 100. Lifespan data was represented as the percent of organism surviving over time, known as the Kaplan-Meier Estimate of Survival function.
# Chart 212 illustrates the impact of resveratrol 216 at 100 μM; and rapamycin 220 at 50 μM; composition 100 at 0.05 mg/ml 208, 0.25 mg/ml 224, and 1.25 mg/ml 228; resveratrol at 100 μM; and rapamycin at 50 μM. In another non-limiting example, subjects, for instance, C. elegans, may be divided into five groups, with each group receiving a different concentration of composition (0.05 mg/mL 208, 0.25 mg/mL 224, or 1.25 mg/mL 228), vitamin C as a positive control (10 mM), or dimethyl sulfoxide (DMSO) as a negative control (0.05% DMSO).
# [1] = 100 μM, * p<0.05 vs negative control
# [2] = 50 μM, * p<0.05 vs negative control
smiles,measurement,setting,value
O=C1O[C@H]([C@@H](O)CO)C(O)=C1O [vitamin C],average decline after paraquat-induced oxidative stress,Caenorhabditis elegans,25%
"Oc1ccc(C=Cc2cc(O)cc(O)c2)cc1 [Resveratrol, resveratrol]",age at 90% Mortality,C. elegans adult animals; 100 μM,30.2 days
same,age at 25% Mortality,C. elegans adult animals; [1],22.4* days
same,age at 50% Mortality (median lifespan),C. elegans adult animals; [1],25.5* days
same,age at 75% Mortality,C. elegans adult animals; [1],28.3* days
same,age at 95% Mortality,C. elegans adult animals; [1],32.3* days
"CO[C@H]1C[C@@H]2CC[C@@H](C)[C@@](O)(O2)C(=O)C(=O)N2CCCC[C@H]2C(=O)O[C@H]([C@H](C)C[C@@H]2CC[C@@H](O)[C@H](OC)C2)CC(=O)[C@H](C)/C=C(\C)[C@@H](O)[C@@H](OC)C(=O)[C@H](C)C[C@H](C)/C=C/C=C/C=C/1C [Rapamycin, rapamycin]",age at 25% Mortality,C. elegans adult animals; [2],24.6* days
same,age at 50% Mortality (median lifespan),C. elegans adult animals; [2],29.5* days
same,age at 75% Mortality,C. elegans adult animals; [2],32.8* days
same,age at 90% Mortality,C. elegans adult animals; [2],35.7* days
same,age at 95% Mortality,C. elegans adult animals; [2],36.1* days
